Measurements reported in ChEMBL document CHEMBL2040812, “A novel franchetine type norditerpenoid isolated from the roots of Aconitum carmichaeli Debx. with potential analgesic activity and less toxicity” (Bioorg Med Chem Lett, 2012).

Tests used:
[1] = system: Mus musculus; experiment: Analgesic activity in ig dosed mouse by hot plate test; format: functional; conditions: po
[2] = Therapeutic index, ratio of LD50 in Kunming mouse to ED50 for analgesic activity in mouse; format: organism-based; conditions: in vivo, read-out: Ratio LD50/ED50
[3] = Toxicity in ig dosed Kunming mouse; format: organism-based; conditions: in vivo, po

With `CCN1C[C@]2(COC)[C@H](O)C[C@H](OC)[C@@]34[C@@H]5C[C@@]6(O)[C@H](OC(=O)c7ccccc7)[C@@H]5[C@@](OC(C)=O)([C@@H]([C@H](OC)[C@H]23)[C@@H]14)[C@@H](O)[C@@H]6OC` [ACONITINE] the ED50 [1] was 0.08 mg/kg, the selectivity ratio [2] was 2 and the LD50 [3] was 0.16 mg/kg.

With `CCN1C[C@]2(COC)CC[C@H](OC)[C@@]34C1O[C@H](C=C1[C@H]5[C@@H](O)[C@H](C[C@H]53)[C@@H](OC)[C@H]1O)[C@H]24` [GUIWULINE] the ED50 [1] was 15 mg/kg, the selectivity ratio [2] was 33 and the LD50 [3] was 500 mg/kg.
